Experimental data taken from patent US8481489B2, “GH secretagogues and uses thereof” (Theratechnologies Inc., priority 2003, dated 2013).
Several values for one entry are separate records, joined by “and”; a condition that tells them apart may be missing. Equal entries are not always repeated. Entries after “also recorded” stand apart in the source; their conditions may differ. Where two headings read alike, the source gives them in different places. Marks after values point to notes of the source that are not given here.

Experiments:
[1] = test system: HIV-infected patients with abdominal fat accumulation; conditions: change from baseline, Week 12, mean (SD)
Description: (§1) Design: Randomized, placebo-controlled, multi-center, dose ranging (placebo, 1 mg or 2 mg SC QD), parallel group, 12-week study
(§2) At the baseline visit, anthropometric measurements were obtained. […] Biochemical parameters including insulin-like growth factor-I, glucose, insulin, lipid profile (cholesterol, HDL, LDL, triglyceride, non HDL and the ratio of cholesterol:HDL), free fatty acids, HbA1C, IGFBP-3, and bone markers (serum osteocalcin and NTX-1), CD4, viral load, and a pregnancy test for female subjects were determined in the fasting state. In addition, insulin and glucose response to a 75 gram standard glucose challenge were assessed and a quality of life questionnaire was administered.
(§3) Clinical laboratory testing was performed by a central lab. Serum IGF-1 was measured after acid-ethanol extraction using the Esoterix RIA kit (Esoterix Inc., Calabasas Hill, Calif.), with a sensitivity of 10 ng/mL. Intra- and inter-assay coefficients of variation were 4.6-20% and 9-10%, respectively. Serum IGFBP-3 was measured using the Esoterix RIA kit (Esoterix Inc., Calabasas Hill, Calif.) with a sensitivity of 0.3 mg/mL. Intra- and inter-assay coefficients of variation were 5.1-13% and 5.5-17%, respectively. HDL, LDL, total cholesterol, triglycerides and FFA were determined by enzymatic calorimetric assay. Glucose was measured by enzymatric test (Gluco-Quant®, Roche diagnostics, Indianapolis, Ind.). HbA1c was determined by chromatography.
(§4) Other endpoints included IGF-I, lipid parameters, glucose and insulin, CD4, viral load, bone markers, and quality of life. A sample size of 20 patients/group was planned to assess a statistically significant change of 10% or more in intra-group analyses. The planned dropout rate was 25% and therefore 60 patients were enrolled into the study. Baseline data are compared between the groups by F-test based on ANOVA for continuous variables and Chi-Square test for categorical variables. Change over time between groups is compared by ANOVA or the Chi-Square test. Where appropriate, data were rank transformed prior to analysis. Changes within each group are determined by t-test. The ITT (intent to treat) population is defined as all subjects who received at least one dose of the study treatment. Descriptive statistics and analyses for all efficacy and safety analyses are performed on the ITT population. End of study, 12 week, data are used to calculate changes in body composition. For biochemical indices, the last observation available is used to calculate change. Imputation for missing data is not performed. For body composition, end of study data are used to calculate change. Interim analyses were not performed. Results are mean (SD) unless otherwise noted. All statistical tests were performed with a two-sided Type I error level of 0.05.

[2] = test system: patients exhibiting sleep maintenance insomnia; experiment: Continuous Performance Test (CPT), 14-day study in sleep maintenance insomnia; format: in vivo, human; conditions: 14 days
Description: Patients were selected based on the Pittsburgh Sleep Quality Index (Score ≧5), the Walters Criteria for Sleep Maintenance Insomnia, and the Beck Questionnaire (Score ≦17). The primary exclusion criteria were other primary sleep disorders and the use of any products affecting sleep or vigilance in the 30 days prior to entering the study.
The study was a randomized, double-blind, placebo-controlled, parallel group and multicenter evaluation of two doses of TH9507 (0.1 mg and 1 mg) administered daily by subcutaneous injection at bedtime for 14 consecutive days. To evaluate vigilance and the performance in the morning, patients underwent a battery of cognitive tests including the Continuous Performance Test (CPT) at baseline and at the end of treatment period.
The CPT has been described in the literature as a measure of consistency in responding and ability to sustain attention over time (Aleman A, et al., J Clin Endocrinol Metab 1999 84(2):471-475). This test required subjects to press space bar each time the letter “A” was followed by “X”. Omission and commission errors, and Mean Reaction Time of correct responses were analyzed.

[3] = Safety profile in the two vigilance studies; format: in vivo, human
[4] = test system: IGF-1 and IGFBP-3; experiment: Serum IGF-1 and IGFBP-3 (RIA), HIV lipodystrophy study; conditions: change from baseline, Week 12, mean (SD)
Description: as §1, §2, §3, §4

[5] = In vitro half-life; format: in vitro ADME
From the text: The safety profile of TH9507 is generally good.

[6] = test system: IGF-1; experiment: Circulating IGF-1 levels, 7-day administration in healthy middle-aged men; format: in vivo, human; conditions: for IGF-1 increase over baseline values / IGF-1 levels reached: 7 days
Description: The study used a randomized, double-blind, placebo-controlled design and was conducted in healthy men, aged 50 to 60 years old. Subjects (8 per group) were injected S.C. once a day for 7 consecutive days with placebo, 0.5, 1 or 2 mg of TH9507. Circulating IGF-1 levels were measured on Days 1 to 7. The 12 hour GH response and TH9507 PK profile were determined on Day 1 and 7.

[7] = test system: HIV-infected patients with abdominal fat accumulation; experiment: Quality of life questionnaire (PLC), HIV lipodystrophy study; format: in vivo, human
Description: A health-related quality of life questionnaire (PLC, Quality of Life Profile for the Chronically Ill) was self-administered to 61 patients randomized to receive placebo or TH9507 at 1 or 2 mg s.c. daily. The PLC questionnaire included a general, non-specific part assessing 6 dimensions of global health as well as a disease specific part capturing impact of enlarged abdominal girth, abdominal bloating, tenseness and pain, as well as diarrhea, visible facial changes, visible changes in physical appearance, and the feeling of being recognized as an HIV positive person.
Study population included 54 men and 7 women. […] Slight changes were observed within the treated groups in the positive mood and social well-being scores but were not considered clinically significant.

[8] = test system: HIV-infected patients with abdominal fat accumulation; experiment: Abdominal VAT and SAT by cross-sectional CT, HIV lipodystrophy study; conditions: for SAT, Δ / VAT, Δ: change from baseline, Week 12, mean (SD)
Description: as §1
Patients: 61 HIV-infected patients (BMI 28±3 [SD] kg/m^2, 28% diabetic or glucose intolerant) with increased waist circumference (102 cm±8 [SD]) and waist/hip (1.0±0.1 [SD])
At the baseline visit, anthropometric measurements were obtained. Total body lean and fat mass as well as regional fat mass in the trunk and extremities were assessed by DEXA. Abdominal subcutaneous and visceral fat area and the ratio of VAT to SAT were determined by cross-sectional CT at L4-L5.
Whole body and regional DEXA (dual energy X-ray absorptiometry) and cross-sectional abdominal CT scans were performed at the individual study sites based on previously established protocols and were standardized across sites. Digitized images were sent to a central reading center, St. Lukes Roosevelt Hospital, for analysis by independent experts without knowledge of treatment assignment. Each site was given a procedure manual to follow in obtaining the body composition data and was certified in the proper technique. For the CT scans, parameters were standardized as follows: Tube Voltage=120 kV, Tube Current=250 mA, Exposure=375 mAs, matrix 512×512. DFOV was set to include the entire slice into the field of view. For the DEXA scans total body scans were performed with analysis of lean body mass, total fat mass, and regional fat mass in the trunk and extremities as previously described (16).
Body composition endpoints included trunk fat and trunk to limb fat ratio by DEXA and VAT and VAT:SAT by CT scan. […] Baseline data are compared between the groups by F-test based on ANOVA for continuous variables and Chi-Square test for categorical variables. Change over time between groups is compared by ANOVA or the Chi-Square test. Where appropriate, data were rank transformed prior to analysis. Changes within each group are determined by t-test. The ITT (intent to treat) population is defined as all subjects who received at least one dose of the study treatment. Descriptive statistics and analyses for all efficacy and safety analyses are performed on the ITT population. End of study, 12 week, data are used to calculate changes in body composition. […] Imputation for missing data is not performed. For body composition, end of study data are used to calculate change. […] Results are mean (SD) unless otherwise noted. All statistical tests were performed with a two-sided Type I error level of 0.05.

CC/C=C/CC(=O)N[C@@H](Cc1ccc(O)cc1)C(=O)N[C@@H](C)C(=O)N[C@@H](CC(=O)O)C(=O)N[C@@H](C)C(=O)N[C@H](C(=O)N[C@@H](Cc1ccccc1)C(=O)N[C@H](C(=O)N[C@@H](CC(N)=O)C(=O)N[C@@H](CO)C(=O)N[C@@H](Cc1ccc(O)cc1)C(=O)N[C@@H](CCCNC(=N)N)C(=O)N[C@@H](CCCCN)C(=O)N[C@H](C(=O)N[C@@H](CC(C)C)C(=O)NCC(=O)N[C@@H](CCC(N)=O)C(=O)N[C@@H](CC(C)C)C(=O)N[C@@H](CO)C(=O)N[C@@H](C)C(=O)N[C@@H](CCCNC(=N)N)C(=O)N[C@@H](CCCCN)C(=O)N[C@@H](CC(C)C)C(=O)N[C@@H](CC(C)C)C(=O)N[C@@H](CCC(N)=O)C(=O)N[C@@H](CC(=O)O)C(=O)N[C@H](C(=O)N[C@@H](CCSC)C(=O)N[C@@H](CO)C(=O)N[C@@H](CCCNC(=N)N)C(=O)N[C@@H](CCC(N)=O)C(=O)N[C@@H](CCC(N)=O)C(=O)NCC(=O)N[C@@H](CCC(=O)O)C(=O)N[C@@H](CO)C(=O)N[C@@H](CC(N)=O)C(=O)N[C@@H](CCC(N)=O)C(=O)N[C@@H](CCC(=O)O)C(=O)N[C@@H](CCCNC(=N)N)C(=O)NCC(=O)N[C@@H](C)C(=O)N[C@@H](CCCNC(=N)N)C(=O)N[C@@H](C)C(=O)N[C@@H](CCCNC(=N)N)C(=O)N[C@@H](CC(C)C)C(N)=O)[C@@H](C)CC)C(C)C)[C@@H](C)O)[C@@H](C)CC [TH9507, (hexenoyl trans-3)hGRF(1-44)NH2]
Fasting Glucose, Δ ([1]; 1 mg SC QD): 0.1 (0.5) mmol/L | Fasting Insulin, Δ ([1]; 1 mg SC QD): −2.8 (27.6) mUI/L | HBA1c, Δ ([1]; 1 mg SC QD): 0.2 (0.4)* % | HOMA-R, Δ ([1]; 1 mg SC QD): 0.8 (7.0) | Two hour glucose, Δ ([1]; 1 mg SC QD): 0.1 (2.1) mmol/L | Fasting Glucose, Δ ([1]; 2 mg SC QD): 0.1 (0.7) mmol/L | Fasting Insulin, Δ ([1]; 2 mg SC QD): 7.4 (6.2) mUI/L | HBA1c, Δ ([1]; 2 mg SC QD): −0.0 (0.5) % | HOMA-R, Δ ([1]; 2 mg SC QD): 2.0 (1.6) | Two hour glucose, Δ ([1]; 2 mg SC QD): 0.7 (1.7) mmol/L | Mean Reaction Time of the CPT, decrease from baseline ([2]; 0.1 mg SC daily at bedtime, baseline to day 9): 45.85 ms | Mean Reaction Time of the CPT vs placebo ([2]; 1 mg SC daily at bedtime): No significant effect | reactions at the site of injection ([3]; 1 mg, insomnia study, vs placebo): higher incidence | safety profile ([3]; both vigilance studies): comparable to that of the placebo | IGF-1, Δ ([4]; 1 mg SC QD): 87 (67) ng/mL and 87.5 (66.9)* ng/mL | IGFBP-3, Δ ([4]; 1 mg SC QD): 0.6 (0.7)* Mg/L | IGF-1, Δ ([4]; 2 mg SC QD): 123 (79) ng/mL and 122.6 (79.1)* ng/mL | IGFBP-3, Δ ([4]; 2 mg SC QD): 0.6 (0.5)* Mg/L | half-life [5]: 3 to 8 h | IGF-1 increase over baseline values ([6]; 0.5 mg SC once a day): 37% | time at which IGF-1 plateau was reached ([6]; 1 mg): 4 days | IGF-1 increase over baseline values ([6]; 1 mg SC once a day): 89% | IGF-1 levels reached ([6]; 1 mg SC once a day): 286 ± 25 ng/mL | time at which IGF-1 plateau was reached ([6]; 2 mg): 6 days | IGF-1 increase over baseline values ([6]; 2 mg SC once a day): 106% | IGF-1 levels reached ([6]; 2 mg SC once a day): 284 ± 55 ng/mL | IGF-1 levels of individual subjects ([6]; none of the subjects greater than this level): ≤ 400 ng/mL | abdominal pain (PLC) ([7]; 1 mg only, P<0.05 vs baseline, NS vs placebo): Improvement | bloating score change (PLC) ([7]; 1 mg s.c. daily): −0.50 | enlarged abdominal girth score change (PLC) ([7]; 1 mg s.c. daily): −0.93 | tenseness (PLC) ([7]; 1 mg, P=0.07 vs baseline, NS vs placebo): trend for improvement | bloating score change (PLC) ([7]; 2 mg s.c. daily): −0.69 | enlarged abdominal girth score change (PLC) ([7]; 2 mg s.c. daily): −1.19 | subscales of the main portion of the PLC, between groups ([7]; 1 or 2 mg s.c. daily): No significant difference | Visceral fat (VAT) change ([8]; 1 mg SC QD, 12 weeks): −3.6% | SAT, Δ ([8]; 1 mg SC QD): 6.8 (21.2) cm^2 | VAT, Δ ([8]; 1 mg SC QD): −11.9 (28.7) cm^2 | Visceral fat (VAT) change ([8]; 2 mg SC QD, 12 weeks): −15.7% | SAT, Δ ([8]; 2 mg SC QD): 4.4 (19.8) cm^2 | VAT, Δ ([8]; 2 mg SC QD): −21.5 (27.9)* cm^2 | Visceral fat decrease within group ([8]; 2 mg, over 3 months): more than 15% | subcutaneous fat (SAT) ([8]; 1 and 2 mg SC QD, 12 weeks, between or within groups): preserved; also recorded: did not change significantly
